According to US5292733A, “Cephalosporin compounds” (Lucky Limited, priority 1991, dated 1994):
Converted amounts (≈) assume the structure as drawn.

Legend:
Assay in all cases: Antibacterial activity MIC, two-fold agar dilution
Type in all cases: cell-based
[1] = test system: Salmonella typhimurium ATCC 14028; settings: Salmonella enterica; Salmonella typhimurium ATCC 14028; Muller-Hinton agar, 37° C., 20 hours; read-out: Antibacterial Activity MIC
Protocol: (§1) These MIC values were taken by employing a two-fold dilution method: that is, two-fold serial dilutions of each of the test compounds were made and dispersed in a Muller-Hinton agar medium; 2 μl of the standard test strain which had the 10^7 CFU(Colony Forming Unit) per ml was inoculated on the medium; and these were incubated at 37° C. for 20 hours. The results of the MIC tests are shown Table 1.

[2] = test system: Morganella morganii ATCC 8076h; settings: ATCC8076H, Muller-Hinton agar, 37° C., 20 hours
Protocol: as §1

[3] = test system: Providencia rettgeri ATCC 9250; settings: ATCC9250, Muller-Hinton agar, 37° C., 20 hours
Protocol: as §1

[4] = test system: Klebsiella pneumoniae ATCC 10031; settings: ATCC10031; Klebsiella pneumoniae ATCC 10031; Muller-Hinton agar, 37° C., 20 hours; read-out: Antibacterial Activity MIC
Protocol: as §1

[5] = test system: Bacillus cereus ATCC 11778; settings: ATCC11778; Bacillus cereus ATCC 11778; Muller-Hinton agar, 37° C., 20 hours; read-out: Antibacterial Activity MIC
Protocol: as §1

[6] = test system: Citrobacter freundii ATCC 8090; settings: ATCC8090; Citrobacter freundii ATCC 8090; Muller-Hinton agar, 37° C., 20 hours; read-out: Antibacterial Activity MIC
Protocol: as §1

[7] = test system: Streptococcus faecalis ATCC 29212; settings: Enterococcus faecalis, ATCC29212; Streptococcus faecalis ATCC 29212; Muller-Hinton agar, 37° C., 20 hours; read-out: Antibacterial Activity MIC
Protocol: as §1

[8] = test system: Enterobacter aerogenes ATCC 29751; settings: Klebsiella aerogenes, ATCC29751; Enterobacter aerogenes ATCC 29751; Muller-Hinton agar, 37° C., 20 hours; read-out: Antibacterial Activity MIC
Protocol: as §1

[9] = test system: Escherichia coli ATCC 10536; settings: ATCC10536, Muller-Hinton agar, 37° C., 20 hours
Protocol: as §1

[10] = test system: Acinetobacter calcoaceticus ATCC 15473; settings: ATCC15473; Acinetobacter calcoaceticus ATCC 15473; Muller-Hinton agar, 37° C., 20 hours; read-out: Antibacterial Activity MIC
Protocol: as §1

[11] = test system: Pseudomonas aeruginosa ATCC 10145; settings: ATCC10145; Pseudomonas aeruginosa ATCC 10145; Muller-Hinton agar, 37° C., 20 hours; read-out: Antibacterial Activity MIC
Protocol: as §1

[12] = test system: Enterobacter cloacae ATCC 27508; settings: ATCC27508; Enterobacter cloacae ATCC 27508; Muller-Hinton agar, 37° C., 20 hours; read-out: Antibacterial Activity MIC
Protocol: as §1

[13] = test system: Staphylococcus epidermidis ATCC 12228; settings: ATCC12228; Staphylococcus epidermidis ATCC 12228; Muller-Hinton agar, 37° C., 20 hours; read-out: Antibacterial Activity MIC
Protocol: as §1

[14] = test system: Staphylococcus aureus ATCC 10537; settings: ATCC10537; Staphylococcus aureus ATCC 10537; Muller-Hinton agar, 37° C., 20 hours; read-out: Antibacterial Activity MIC
Protocol: as §1

[15] = test system: Pseudomonas aeruginosa ATCC 27853; settings: ATCC27853; Pseudomonas aeruginosa ATCC 27853; Muller-Hinton agar, 37° C., 20 hours; read-out: Antibacterial Activity MIC
Protocol: as §1

[16] = test system: Staphylococcus aureus ATCC 6538p; settings: ATCC6538P; Staphylococcus aureus ATCC 6538p; Muller-Hinton agar, 37° C., 20 hours; read-out: Antibacterial Activity MIC
Protocol: as §1

[17] = test system: Micrococcus luteus ATCC 9341; settings: ATCC9341; Micrococcus luteus ATCC 9341; Muller-Hinton agar, 37° C., 20 hours; read-out: Antibacterial Activity MIC
Protocol: as §1

[18] = test system: Bacillus megaterium ATCC 9885; settings: Priestia megaterium, ATCC9885; Bacillus megaterium ATCC 9885; Muller-Hinton agar, 37° C., 20 hours; read-out: Antibacterial Activity MIC
Protocol: as §1

[19] = test system: Shigella flexneri ATCC 11836; settings: ATCC11836, Muller-Hinton agar, 37° C., 20 hours
Protocol: as §1

[20] = test system: Escherichia coli ATCC 25922; settings: ATCC25922, Muller-Hinton agar, 37° C., 20 hours
Protocol: as §1

[21] = test system: Shigella sonnei ATCC 11060; settings: ATCC11060, Muller-Hinton agar, 37° C., 20 hours
Protocol: as §1

[22] = test system: Proteus mirabilis ATCC 25933; settings: ATCC25933; Proteus mirabilis ATCC 25933; Muller-Hinton agar, 37° C., 20 hours; read-out: Antibacterial Activity MIC
Protocol: as §1

[23] = test system: Serratia marcescens ATCC 27117; settings: ATCC27117; Serratia marcescens ATCC 27117; Muller-Hinton agar, 37° C., 20 hours; read-out: Antibacterial Activity MIC
Protocol: as §1

[24] = test system: Pseudomonas aeruginosa ATCC 25619; settings: ATCC25619; Pseudomonas aeruginosa ATCC 25619; Muller-Hinton agar, 37° C., 20 hours; read-out: Antibacterial Activity MIC
Protocol: as §1

[25] = test system: Proteus vulgaris ATCC 6059; settings: ATCC6059; Proteus vulgaris ATCC 6059; Muller-Hinton agar, 37° C., 20 hours; read-out: Antibacterial Activity MIC
Protocol: as §1

Row | SMILES | MIC [1] [µg/mL] | MIC [2] [µg/mL] | MIC [3] [µg/mL] | MIC [4] [µg/mL] | MIC [5] [µg/mL] | MIC [6] [µg/mL] | MIC [7] [µg/mL] | MIC [8] [µg/mL] | MIC [9] [µg/mL] | MIC [10] [µg/mL] | MIC [11] [µg/mL] | MIC [12] [µg/mL] | MIC [13] [µg/mL] | MIC [14] [µg/mL] | MIC [15] [µg/mL] | MIC [16] [µg/mL] | MIC [17] [µg/mL] | MIC [18] [µg/mL] | MIC [19] [µg/mL] | MIC [20] [µg/mL] | other results
1 | CO/N=C(\C(=O)N[C@@H]1C(=O)N2C(C(=O)[O-])=C(CSc3cc(N)nc(N)[n+]3C)CS[C@H]12)c1csc(N)n1 [Compound I-7, (6R,7R)-7-[(Z)-2-(2-aminothiazol-4-yl)-2-(methoxyimino)acetamido]-3-(2,6-diamino-3-methylpyrimidinium-4-yl)thiomethyl-3-cephem-4-carboxylate] | 1 (≈ 1.81 µM) | 0.016 (≈ 0.029 µM) | ≤ 0.008 | 0.016 (≈ 0.029 µM) | 64 (≈ 116 µM) | 0.25 (≈ 0.453 µM) | > 128 | 0.5 (≈ 0.906 µM) | 0.13 (≈ 0.236 µM) | 8 (≈ 14.5 µM) | 64 (≈ 116 µM) | 0.016 (≈ 0.029 µM) | 0.5 (≈ 0.906 µM) | 1 (≈ 1.81 µM) | 32 (≈ 58 µM) | 2 (≈ 3.63 µM) | 0.063 (≈ 0.114 µM) | 0.13 (≈ 0.236 µM) | 0.063 (≈ 0.114 µM) | 0.13 (≈ 0.236 µM) | MIC [21]: 0.5 µg/mL (≈ 0.906 µM); MIC [22]: 0.031 µg/mL (≈ 0.0562 µM); MIC [23]: 0.5 µg/mL (≈ 0.906 µM); MIC [24]: 2 µg/mL (≈ 3.63 µM); MIC [25]: 0.063 µg/mL (≈ 0.114 µM)
2 | CC[n+]1c(SCC2=C(C(=O)[O-])N3C(=O)[C@@H](NC(=O)/C(=N\OC)c4csc(N)n4)[C@H]3SC2)cc(N)nc1N [Compound I-8, (6R,7R)-7-[(Z)-2-(2-aminothiazol-4-yl)-2-(methoxyimino)acetamido]-3-(2,6-diamino-3-ethylpyrimidinium-4-yl)thiomethyl-3-cephem-4-carboxylate] | 0.5 (≈ 0.884 µM) | 0.016 (≈ 0.0283 µM) | ≤ 0.008 | 0.016 (≈ 0.0283 µM) | 64 (≈ 113 µM) | 0.13 (≈ 0.23 µM) | > 128 | 0.5 (≈ 0.884 µM) | 0.063 (≈ 0.111 µM) | 8 (≈ 14.1 µM) | 32 (≈ 56.6 µM) | 0.016 (≈ 0.0283 µM) | 0.5 (≈ 0.884 µM) | 1 (≈ 1.77 µM) | 16 (≈ 28.3 µM) | 2 (≈ 3.54 µM) | 0.063 (≈ 0.111 µM) | 0.13 (≈ 0.23 µM) | 0.063 (≈ 0.111 µM) | 0.063 (≈ 0.111 µM) | MIC [21]: 0.5 µg/mL (≈ 0.884 µM); MIC [22]: 0.031 µg/mL (≈ 0.0548 µM); MIC [23]: 0.5 µg/mL (≈ 0.884 µM); MIC [24]: 2 µg/mL (≈ 3.54 µM); MIC [25]: 0.063 µg/mL (≈ 0.111 µM)
3 | CCO/N=C(\C(=O)N[C@@H]1C(=O)N2C(C(=O)[O-])=C(CSc3cc(N)[n+](C)c(N)n3)CS[C@H]12)c1nsc(N)n1 [Compound I-10, (6R,7R)-7-[(Z)-2-(5-amino-1,2,4-thiadiazol-3-yl)-2-(ethoxyimino)acetamido]-3-(2,6-diamino-1-methylpyrimidinium-4-yl)thiomethyl-3-cephem-4-carboxylate] | 0.063 (≈ 0.111 µM) | 0.016 (≈ 0.0282 µM) | ≤ 0.008 | ≤ 0.008 | 128 (≈ 226 µM) | 0.13 (≈ 0.229 µM) | 8 (≈ 14.1 µM) | 0.25 (≈ 0.441 µM) | 0.13 (≈ 0.229 µM) | 4 (≈ 7.06 µM) | 1 (≈ 1.76 µM) | 0.016 (≈ 0.0282 µM) | 0.25 (≈ 0.441 µM) | 0.5 (≈ 0.882 µM) | 1 (≈ 1.76 µM) | 0.5 (≈ 0.882 µM) | 0.016 (≈ 0.0282 µM) | 0.13 (≈ 0.229 µM) | 0.031 (≈ 0.0547 µM) | 0.25 (≈ 0.441 µM) | MIC [21]: 0.25 µg/mL (≈ 0.441 µM); MIC [22]: 0.25 µg/mL (≈ 0.441 µM); MIC [23]: 0.13 µg/mL (≈ 0.229 µM); MIC [24]: 0.5 µg/mL (≈ 0.882 µM); MIC [25]: 0.25 µg/mL (≈ 0.441 µM)
